Laboratory results from paper PMC4906375, “Contribution of Amphipathicity and Hydrophobicity to the Antimicrobial Activity and Cytotoxicity of β-Hairpin Peptides” (ACS Infectious Diseases, 2016).
≈ marks a conversion by molar mass, not a printed value. Where two headings read alike, the source gives them in different places.

Legend:
[1] = tested on: E. coli ATCC 25922 (control strain); type: cell-based, Escherichia coli; conditions: ATCC 25922
Protocol: (§1) Both antibacterial and antifungal MIC assays were performed by a broth microdilution plate based method as per CLSI guidelines for antimicrobial susceptibility testing.[53],[54] […] Full assay details are included in the Supporting Information with a full list of strains tested in Table S1.
(§2) Antibacterial assay (Minimum Inhibitory Concentration [MIC]).
(§3) MIC assay was performed by a broth microdilution plate based method as per CLSI guidelines for antimicrobial susceptibility testing of aerobic bacteria.1 Compounds were prepared at 1.28 mg/mL solution in water. The tested strains, Table S1, were cultured in Luria broth (LB) (In Vitro Technologies, USB75852), at 37 °C overnight. A sample of culture was then diluted 40Pfold in fresh Muller Hinton broth (MHB) (Bacto laboratories, 211443) and incubated at 37 °C for 1.5P2 h. The compounds were serially diluted twoPfold across the wells, with compound concentrations ranging from 0.015 µg/mL to 512 µg/mL, plated in duplicate. The resultant midPlog phase cultures were diluted to the final concentration of 1×10^6 CFU/mL, then 50 µL was added to each well of the compoundP containing 96Pwell plates (Corning 3641, NonPbinding Surface [NBS]), giving a final compound concentration range of 0.008 µg/mL to 256 µg/mL and 5x10^5 CFU/mL. All the plates were covered and incubated at 37 °C for 18 h. MICs were determined visually, being defined as the lowest concentration showing no visible growth. Resazurin was added at 0.001% final concentration to each well and incubated for 2 h before MICs were rePread for confirmation using the colour change from blue to pink to indicate wells containing viable cells. The resazurin assay was added in some wells where some form of precipitate was present in otherwise clear wells, making it difficult to ascertain which wells had visible […]
(§4) Antifungal assay (Minimum Inhibitory Concentration [MIC]). MIC assay was performed by a broth microdilution plate based method as per CLSI guidelines for antimicrobial susceptibility testing.2 Fungi strains, Table S1, were cultured for 3 days on Yeast ExtractPPeptone Dextrose (YPD) (SigmaPAldrich, Y1500) agar at 30 °C. A yeast suspension of 1x10^6 to 5x10^6 CFU/mL was prepared from five colonies. These stock suspensions were diluted with Yeast Nitrogen Base (YNB) (Becton Dickinson, 233520) broth to a final concentration of 2.5 ×10^3 CFU/mL. All samples, compounds and standards were plated in 96Pwell plates (Corning 3641, NonPbinding Surface [NBS]), by adding 10 µL of 1.28 mg/mL stock solution to each well and 90 µL of media. Then, the samples were serial diluted (1:2) in 12 concentrations across the plate. The standard antifungal ranged from 256

[2] = tested on: E. coli ATCC 700926 (K12); type: cell-based, Escherichia coli; conditions: ATCC 700926
Protocol: as §1, §2, §3, §4

[3] = tested on: P. aeruginosa ATCC 27853; type: cell-based, Pseudomonas aeruginosa; conditions: ATCC 27853
Protocol: as §1, §2, §3, §4

[4] = tested on: E. coli ATCC 25922 cytoplasmic membrane; experiment: Inner membrane permeability measured by SYTOX green fluorescence emission; conditions: SYTOX green, E. coli ATCC 25922, 1 h
[5] = hemolysis (%) at 300 μg/mL, human erythrocytes, 3 h, relative to 100% hemolysis by 1% Triton X-100
[6] = tested on: human erythrocytes; conditions: red cells of human, 3 h
[7] = tested on: K. pneumoniae ATCC 13883; type: cell-based, Klebsiella pneumoniae; conditions: ATCC 13883
Protocol: as §1, §2, §3, §4

[8] = tested on: A. baumannii ATCC 19606; type: cell-based, Acinetobacter baumannii; conditions: ATCC 19606
Protocol: as §1, §2, §3, §4

[9] = tested on: B. subtilis ATCC 6051; experiment: microbe, parasite or virus in culture; type: cell-based, Bacillus subtilis; conditions: ATCC 6051
Protocol: as §1, §2, §3, §4

[10] = Cytotoxicity, Alamar Blue (resazurin) assay; type: cell-based, human; conditions: human
Protocol: Cytotoxicity to HEK293 and HepG2 cells was determined using the Alamar Blue (resazurin) assay,[55],[56] with 24 h of incubation and either 1 or 10% serum concentration. Full assay details are included in the Supporting Information.
Cytotoxicity. Cytotoxicity to HEK293 and HepG2 cells was determined using the Alamar Blue (resazurin) assay,3, 4 For the assays supplemented with 1 % FBS as final concentration the cells were seeded one day prior to the assay (3,000 per 20 µL for HEK293 and 4,000 per 20 µL for HepG2) with DMEM + 2 % FBS. The compounds were prepared as described below, using DMEM with no FBS instead to give the final FBS concentration of 1 %.
The highest concentration the compounds were tested was 300 µg/mL. A dilution series of 1:3 fold steps in DMEM (GIBCOPInvitrogen, cat. no. 11995P073) + 10 % FBS was created (concentration range of 600 µg/mL – 0.28 µg/mL), and 20 µL of these 2x concentrated compound dilutions were added in duplicates to wells of a black wall, clear bottom 384Pwells cell culture plate. For the assays with 1 % FBS the compounds in 0 % FBS were added to the existing cell plates in 2 % FBS. 200 µM Tamoxifen (Sigma T5648) served as negative control and in addition a serial dilution of tamoxifen, starting at 200 µM (74 µg/mL), was included as a dose response control (1 in 2 dilution series for tamoxifen). For the assay with 10 % FBS, HepG2 cells were seeded at 5000 cells per well, in a volume of 20 µL in DMEM medium + 10 % of FBS and added to the 20 µL of compound solution (total volume of 40 µL), resulting in a final compound concentration range of 300 µg/mL to 0.14 µg/mL.
Cells were incubated together with the compounds for 20 h at 37 °C, 5 % CO2.
After the incubation, 5 µL of 100 µM (25 µg/mL) resazurin dissolved in PBS (final concentration was approximately 11 µM) was added to each well. The plates were then incubated for 3 h at 37 °C, 5 % CO2. The fluorescence intensity was read using the TECAN Infinite M1000 PRO with excitation/emission 560/590. The data was analysed by Graph Pad Prism software. Results are presented as the average percentage of control ± SD for each set of duplicate wells using the following equation: Cell survival % = (FISAMPLE – FINegative/FIUNTREATED –FINegative)*100. (100 µg/mL tamoxifen was set as 0 % survival, media

[11] = Plasma protein binding, ultrafiltration; type: in vitro ADME; conditions: 100% human plasma, read-out: PPB (%) (converted)
Protocol: Plasma protein binding was performed using an ultrafiltration method.[58]
Plasma protein binding assay
Plasma protein binding was performed using an Ultrafiltration method.13 Fresh frozen human plasma was pooled from O Negative (Product number 1274512) blood from the R & D division of the Australian Red Cross Blood Services (Brisbane). Stock solutions (20 mg/mL) of the test compounds were prepared in H2O. Test compounds (40 µg/mL) were incubated in 100 % human plasma at 37 °C for 30 min (1 mL volume). For unfiltered samples, an aliquot (50 µL) was removed, diluted with PBS (50 µL) and quenched with icePcold precipitating solution comprising 0.5 µM carbutamide MS internal standard in acetonitrile : methanol : formic acid (1: 1 : 0.001). Samples were incubated at 4 °C for 30 min then centrifuged at 14000 × g for 8 min, with the clear supernatant transferred to a vial for LC/MS/MS analysis.
For filtered samples, the plasma sample (250 µL) was filtered using Amicon UltraP0.5 Centrifugal Filter Devices 30K NMWL at 14000 × g for 7 min and then an aliquot (50 µL) was processed as described for unfiltered samples. The fraction of unbound compound was calculated by determining the concentration of the filtered sample and the concentration of unfiltered sample. All samples were performed in triplicate with sulfamethoxazole as a […]

[12] = tested on: E. coli ATCC 25922 cytoplasmic membrane; conditions: not told

CC(C)C[C@H](NC(=O)[C@H](CCCNC(=N)N)NC(=O)CNC(=O)CNC(=O)[C@@H](N)CCCNC(=N)N)C(=O)N[C@H]1CSSC[C@@H](C(=O)N[C@H](C(=O)NCC(=O)N[C@@H](CCCNC(=N)N)C(N)=O)C(C)C)NC(=O)[C@H](C(C)C)NC(=O)[C@@H]2CSSC[C@H](NC(=O)[C@H](Cc3ccc(O)cc3)NC1=O)C(=O)N[C@@H](CCCNC(=N)N)C(=O)N[C@@H](CCCNC(=N)N)C(=O)N[C@@H](CCCNC(=N)N)C(=O)N[C@@H](Cc1ccccc1)C(=O)N2 [protegrin-1]
MIC [1]: 2 µg/mL (≈ 0.928 µM) | MIC [2]: 0.25 µg/mL (≈ 0.116 µM) | MIC [3]: 4 µg/mL (≈ 1.86 µM) | permeabilisation of the E. coli cytoplasmic membrane at lethal concentrations [4]: permeabilise | hemolysis [5]: 65% | hemolysis (%) at 300 μg/mL [6]: 64.8 ± 3.5% | MIC [7]: 0.5 µg/mL (≈ 0.232 µM) | MIC [8]: 0.25 µg/mL (≈ 0.116 µM) | MIC [9]: 0.03 µg/mL (≈ 0.0139 µM) | CC50 at 24 h ([10]; HEK293 cells, HEK293, 1% FBS, read-out: cytotoxicity HEK293 1% FBS): 19.6 ± 1.2 µg/mL (≈ 9.09 µM) | CC50 at 24 h ([10]; HEK293 cells, HEK293, 10% FBS, read-out: cytotoxicity HEK293 10% FBS): 93.9 ± 1.1 µg/mL (≈ 43.6 µM) | CC50 at 24 h ([10]; HepG2 cells, HepG2, 1% FBS, read-out: cytotoxicity HepG2 1% FBS): 31.4 ± 2 µg/mL (≈ 14.6 µM) | CC50 at 24 h ([10]; HepG2 cells, HepG2, 10% FBS, read-out: cytotoxicity HepG2 10% FBS): 96.1 ± 1.1 µg/mL (≈ 44.6 µM) | fraction unbound [11]: 0.11 | permeabilization concentration relative to MIC [12]: lower concentration than their MIC
